# Results from patent US6545043B1 (priority 1997, dated 2003).
# “And” between values parts separate entries of the source, which are not always exact repeats. Equal entries are not always repeated. “Also recorded” adds a separate entry of the source.
# System: soybean cyst nematode (SCN) (Heterodera glycines) eggs
# Assay: not given
# Settings: in vivo
row,Compound,[…] HATCH
1,"C=CC(O)CC#N (centres unmarked) [CHB, 1-cyano-2-hydroxy-3-butene]",−70% and −73%

# System: root-knot nematode (RKN) (Meloidogyne incognita) eggs
# Assay: not given
# Settings: in vivo
Compound,"percent hatch, highest in the 22-day observation period [%]",Percent hatch
"C=CC(O)C#N (centres unmarked) [CHP, 3-cyano-3-hydroxy-1-propene]",≤ 34.4,
"C=CC(C#N)OC(C)=O (centres unmarked) [CHP-Ace, CHP acetate]",≤ 5.6,0.0% and 5.4% and 5.6% and 0.8% and 1.5% and 4.9% and 5.2% and 5.3%

# System: root-knot nematode (RKN) (Meloidogyne incognita) eggs
# Assay: not given
# Settings: in vivo
# Remark: another data set of the same source
row,Compound,"percent hatch, highest in the 22-day period [%]"
1,"C=CC(O)C#N (centres unmarked) [CHP, 3-cyano-3-hydroxy-1-propene]",≤ 19
2,"C=CC(C#N)OC(C)=O (centres unmarked) [CHP-Ace, CHP acetate]",≤ 42.6
3,N#CC(O)c1ccccc1 (centres unmarked) [mandelonitrile],≤ 29.7

# System: soil bacteria
# Assay: not given
# Settings: not given
row,Compound,Severity (bacteria and fungal colonies formed)
1,"C=CC(C#N)OC(C)=O (centres unmarked) [CHP-Ace, CHP acetate]",completely inhibited growth; also recorded: No bacteria or fungal colonies

# System: weed seeds in soil
# Assay: not given
# Settings: in vivo
row,Compound,effect on post-emergent weeds (observation)
1,"C=CC(C#N)OC(C)=O (centres unmarked) [CHP-Ace, CHP acetate]",kill post-emergent weeds

# System: soil microbial activity
# Assay: not given
# Settings: not given
row,Compound,Severity of depression of microbial activity
1,CBr [methyl bromide],Slightly Depressed; also recorded: severe depression; also recorded: Severely Depressed

# System: adult house fly (Musca domestica)
# Assay: not given
# Settings: in vivo
Compound,LC50 [µg/mL],times less effective than dichlorvos
N#CC1(O)C=CCCC1 (centres unmarked) [2-cyclohexen-1-one cyanohydrin],>20,
CC=C(C)C(O)C#N (centres unmarked) [2-methyl-2-butenal cyanohydrin],>20,
CCC(C)C(O)C#N (centres unmarked) [2-methylbutyraldehyde cyanohydrin],>20,
CCCC(C)C(O)C#N (centres unmarked) [2-methylvaleraldehyde cyanohydrin],>20,
N#CC(O)c1ccccc1[N+](=O)[O-] (centres unmarked) [2-nitromandelonitrile cyanohydrin],>20,
CC(C)C(C)(O)C#N (centres unmarked) [3-methylbutanone cyanohydrin],>20,
"C=CCC#N [AC, allyl cyanide]",3.66,
"C=CCN=C=S [AITC, allyl isothiocyanate]",0.13,
"C=CC(O)CC#N (centres unmarked) [CHB, 1-cyano-2-hydroxy-3-butene]",6.2,
"C=CC(O)C#N (centres unmarked) [CHP, 3-cyano-3-hydroxy-1-propene]",0.15,
"C=CC(C#N)OC(C)=O (centres unmarked) [CHP-Ace, CHP acetate]",0.26,about 20 times
"C=CC(C#N)OC(=O)C(C)(C)C (centres unmarked) [CHP-Piv, CHP pivalate]",1.37,
"C=CC(C#N)OC(=O)CC (centres unmarked) [CHP-Pro, CHP propionate]",0.66,about 60 times
"CC(C)(O)C#N [DMK-CNOH, dimethyl ketone cyanohydrin]",<0.07,
methyl ethyl ketone cyanohydrin [MEK-CNOH],0.09,

# System: lesser grain borer (Rhizopertha dominica)
# Assay: not given
# Settings: in vivo
Compound,LC50 [µg/mL],times less effective than dichlorvos
N#CC1(O)C=CCCC1 (centres unmarked) [2-cyclohexen-1-one cyanohydrin],>20,
CC=C(C)C(O)C#N (centres unmarked) [2-methyl-2-butenal cyanohydrin],>20,
CCC(C)C(O)C#N (centres unmarked) [2-methylbutyraldehyde cyanohydrin],>20,
CCCC(C)C(O)C#N (centres unmarked) [2-methylvaleraldehyde cyanohydrin],>20,
N#CC(O)c1ccccc1[N+](=O)[O-] (centres unmarked) [2-nitromandelonitrile cyanohydrin],>20,
CC(C)C(C)(O)C#N (centres unmarked) [3-methylbutanone cyanohydrin],>20,
"C=CCC#N [AC, allyl cyanide]",2.8,
"C=CCN=C=S [AITC, allyl isothiocyanate]",1.57,
"C=CC(O)CC#N (centres unmarked) [CHB, 1-cyano-2-hydroxy-3-butene]",,about 68 times
"C=CC(O)C#N (centres unmarked) [CHP, 3-cyano-3-hydroxy-1-propene]",0.37,
"C=CC(C#N)OC(C)=O (centres unmarked) [CHP-Ace, CHP acetate]",0.37,
"C=CC(C#N)OC(=O)C(C)(C)C (centres unmarked) [CHP-Piv, CHP pivalate]",2.4,
"C=CC(C#N)OC(=O)CC (centres unmarked) [CHP-Pro, CHP propionate]",0.70,about 2.5 times
"CC(C)(O)C#N [DMK-CNOH, dimethyl ketone cyanohydrin]",0.25,
"COP(=O)(OC)OC=C(Cl)Cl [dichlorvos, reference compound]",0.29,
methyl ethyl ketone cyanohydrin [MEK-CNOH],0.27,

# System: brine shrimp (Artemia franciscana)
# Assay: not given
# Settings: in vivo
row,Compound,effectiveness as aquatic pesticide
1,"C=CCC#N [AC, allyl cyanide]",very weak
2,"C=CCSC#N [ATC, allyl thiocyanate]",very weak
3,"C=CC(O)CC#N (centres unmarked) [CHB, 1-cyano-2-hydroxy-3-butene]",very weak
4,C=CC(C#N)OC(=O)/C=C/c1ccccc1 (centres unmarked) [CHP cinnamate],moderately toxic

# System: adult house fly (Musca domestica)
# Assay: not given
# Settings: in vivo
# Remark: another data set of the same source
Compound,effectiveness as topical pesticide,Percentage mortality at 24 h [%]
"C=CC(O)C#N (centres unmarked) [CHP, 3-cyano-3-hydroxy-1-propene]",relatively weak,
"O=C(O)C=Cc1ccccc1 [cinnamic acid, reference compound]",not an effective biopesticide,
N#CC(O)/C=C/c1ccccc1 (centres unmarked) [cinnamyl cyanohydrin],relatively weak,
CC(C)=CCCC(C)CC(O)C#N (centres unmarked) [citronellyl cyanohydrin],not active,
CC(C)=CCC/C(C)=C/C(O)C#N (centres unmarked) [citryl cyanohydrin],not active,9

# System: house fly larvae (M. domestica)
# Assay: not given
# Settings: in vivo; cited from earlier work
row,Compound,mortality
1,CC1(C)C(C=C(Cl)Cl)C1C(=O)OCc1cccc(Oc2ccccc2)c1 (centres unmarked) [permethrin],roughly 98%

# System: Granary weevil, Sitophilus granarius
# Assay: not given
# Settings: in vivo; cited from earlier work
row,Compound,LC50 for 6 h [µg/mL]
1,C=CC#N [acrylonitrile],2.0
2,S=C=S [carbon disulfide],43.0
3,C1CO1 [ethylene oxide],13.5
4,CBr [methyl bromide],4.8

# System: Drugstore beetle, Stegobium paniceum
# Assay: not given
# Settings: in vivo; cited from earlier work
row,Compound,LC50 for 6 h [µg/mL]
1,C=CC#N [acrylonitrile],1.7
2,S=C=S [carbon disulfide],42.0
3,C1CO1 [ethylene oxide],9.0
4,CBr [methyl bromide],4.4

# System: Confused flour beetle, Tribolium confusum
# Assay: not given
# Settings: in vivo; cited from earlier work
row,Compound,LC50 for 6 h [µg/mL]
1,C=CC#N [acrylonitrile],3.0
2,S=C=S [carbon disulfide],75.0
3,C1CO1 [ethylene oxide],27.5
4,CBr [methyl bromide],9.2

# System: Bean weevil, Acanthoscelides obtectus
# Assay: not given
# Settings: in vivo; cited from earlier work
row,Compound,LC50 for 6 h [µg/mL]
1,C=CC#N [acrylonitrile],1.1
2,S=C=S [carbon disulfide],29.0
3,C1CO1 [ethylene oxide],10.5
4,CBr [methyl bromide],4.2

# System: Saw-toothed grain weevil, Oryzaephilus surinamensis
# Assay: not given
# Settings: in vivo; cited from earlier work
row,Compound,LC50 for 6 h [µg/mL]
1,C=CC#N [acrylonitrile],0.8
2,S=C=S [carbon disulfide],40.0
3,C1CO1 [ethylene oxide],4.0
4,CBr [methyl bromide],4.4

# System: five stored products pests (granary weevil, drugstore beetle, confused flour beetle, bean weevil, saw-toothed grain beetle)
# Assay: not given
# Settings: in vivo; cited from earlier work
row,Compound,"LC50 values, range over five stored products pests [µg/mL]"
1,CBr [methyl bromide],4.2 to 9.2

# System: not given
# Assay: not given
# Settings: in vivo; cited from earlier work
row,Compound,mammalian LD50 [mg/kg]
1,CNC(=O)O/N=C/C(C)(C)SC [Aldicarb],1

# System: yellow fever mosquito (Aedes aegypti) larvae
# Assay: whole plant or invertebrate
# Settings: 24 h, read-out: % mortality at 1 ppm
row,Compound,mortality at 1 ppm [%]
1,"C=CCC#N [AC, allyl cyanide]",3
2,"C=CCN=C=S [AITC, allyl isothiocyanate]",83
3,"C=CCSC#N [ATC, allyl thiocyanate]",57
4,"C=CC(O)CC#N (centres unmarked) [CHB, 1-cyano-2-hydroxy-3-butene]",17

# System: brine shrimp (Artemia franciscana)
# Assay: whole plant or invertebrate
# Settings: not given
Compound,mortality at 1 ppm [%],mortality at 10 ppm [%],mortality at 100 ppm [%]
C=CC(C#N)OC(=O)/C=C/c1ccccc1 (centres unmarked) [CHP cinnamate],95,100,100
C=CC(C#N)OC(=O)CCCCCCCCC (centres unmarked) [CHP decanoate],15,95,100
"O=C(O)C=Cc1ccccc1 [cinnamic acid, reference compound]",30,45,100
N#CC(O)/C=C/c1ccccc1 (centres unmarked) [cinnamyl cyanohydrin],25,15,100
"CC(C)=CCCC(C)CC(=O)O (centres unmarked) [citronellic acid, reference compound]",40,65,100
CC(C)=CCC/C(C)=C/C(O)C#N (centres unmarked) [citryl cyanohydrin],0,0,87
"C=C(C)[C@H]1Cc2c(ccc3c2O[C@@H]2COc4cc(OC)c(OC)cc4[C@@H]2C3=O)O1 [rotenone, reference compound]",100,,

# Same assay, conditions: 24 h, read-out: % Mortality at 1 ppm
row,Compound,mortality at 1 ppm [%]
1,"C=CCC#N [AC, allyl cyanide]",7
2,"C=CCN=C=S [AITC, allyl isothiocyanate]",97
3,"C=CCSC#N [ATC, allyl thiocyanate]",47
4,"C=CC(O)CC#N (centres unmarked) [CHB, 1-cyano-2-hydroxy-3-butene]",13

# System: adult house fly (Musca domestica)
# Assay: whole plant or invertebrate
# Settings: topical, 24 h, read-out: Percentage mortality at 24 h
Compound,mortality at 97 µg/fly [%],mortality at 99 µg/fly [%],mortality at 101 µg/fly [%],mortality at 10.7 µg/fly [%],mortality at 107 µg/fly [%],mortality at 1 µg/fly [%],mortality at 10 µg/fly [%],mortality at 100 µg/fly [%],mortality at 9.8 µg/fly [%],mortality at 98 µg/fly [%]
"C=CCC#N [AC, allyl cyanide]",15,,,,,,,,,
"C=CCN=C=S [AITC, allyl isothiocyanate]",,45,,,,,,,,
"C=CCSC#N [ATC, allyl thiocyanate]",,,35,,,,,,,
"C=CC(O)CC#N (centres unmarked) [CHB, 1-cyano-2-hydroxy-3-butene]",,,,0,55,,,,,
C=CC(C#N)OC(=O)/C=C/c1ccccc1 (centres unmarked) [CHP cinnamate],,,,,,0,~50,87,,
C=CC(C#N)OC(=O)CCCCCCCCC (centres unmarked) [CHP decanoate],,,,,,0,~50,100,,
"C=CC(O)C#N (centres unmarked) [CHP, 3-cyano-3-hydroxy-1-propene]",,,,,,,,,5,100
"C=CC(C#N)OC(C)=O (centres unmarked) [CHP-Ace, CHP acetate]",,,,,,,0,,,
"C=CC(C#N)OC(=O)C(C)(C)C (centres unmarked) [CHP-Piv, CHP pivalate]",,80,,,,,,,,
"C=CC(C#N)OC(=O)CC (centres unmarked) [CHP-Pro, CHP propionate]",100,,,,,,,,,
"C=CC1CNC(=S)O1 (centres unmarked) [Goitrin, goitrin]",,,,,,5,,5,,
"O=C(O)C=Cc1ccccc1 [cinnamic acid, reference compound]",,,,,,0,0,0,,
"CC(C)=CCCC(C)CC(=O)O (centres unmarked) [citronellic acid, reference compound]",,,,,,0,91,100,,
CC(C)=CCC/C(C)=C/C(O)C#N (centres unmarked) [citryl cyanohydrin],,,,,,8,,,,
"COP(=O)(OC)OC=C(Cl)Cl [dichlorvos, reference compound]",,,,,,95,,,,

# Same assay, conditions: topical, 24 h, read-out: Percentage mortality at 24 h
Compound,mortality at […] [%],mortality at 9.9 µg/fly [%],mortality at 9.7 µg/fly [%],mortality at 6 µg/fly [%],mortality at 50 µg/fly [%]
"C=CC(C#N)OC(C)=O (centres unmarked) [CHP-Ace, CHP acetate]",100,,,,
"C=CC(C#N)OC(=O)C(C)(C)C (centres unmarked) [CHP-Piv, CHP pivalate]",,0,,,
"C=CC(C#N)OC(=O)CC (centres unmarked) [CHP-Pro, CHP propionate]",,,0,,
N#CC(O)/C=C/c1ccccc1 (centres unmarked) [cinnamyl cyanohydrin],,,,9,100
CC(C)=CCCC(C)CC(O)C#N (centres unmarked) [citronellyl cyanohydrin],,,,14,10
